For the assay, the system named is S. enteritidis CVCC3377. Nature of the assay: Cell surface hydrophobicity, hexadecane partitioning. The class given is cell-based, Salmonella enteritidis. To be noted: peptide 1×, 2× or 4× MIC, 10 min 37 °C, increased from 9.43% (untreated) to this value, mean, n = 3. Here is the method:
The effects of AMPs on the cell surface hydrophobicity of S. aureus ATCC25923 and S. enteritidis CVCC3377 were measured using the hexadecane partitioning method. Cells were grown to stationary phase in Mueller-Hinton broth at 37 °C, harvested by centrifugation at 5000 rpm for 4 min, washed twice with sterile normal saline, and suspended in 0.1 M KNO3 (pH 6.2) to an OD600 nm of 0.4. […] Sterile normal saline was used as a negative control, and the optical density at 600 nm was measured as OD0. Subsequently, a 1.2-ml cell suspension was mixed with 0.2 ml of hexadecane by vortexing for 1 min, and then, the mixture was incubated for 15 min. The OD600 nm value of the aqueous phase was determined as OD1. The hydrophobicity percentages were calculated by the following equation: hydrophobicity (%) = (1 − OD1/OD0) × 100%. All experiments were repeated three times.

Turning to “FKAWRWAWRMKKLAAPS [Lfcin4, 17-residue LfcinB17-31 derivative, Trp/Ala-containing]”, the cell surface hydrophobicity came to 16.45%.
